From patent publication US20110059969A1, “PIPERAZINES AS ANTI-OBESITY AGENTS” (ASTRAZENECA AB, priority 2007, published 2011)

Key:
[1] = system: JEG-3 cells; settings: Biol. Reprod. (2007) 76: 203-10; cited from earlier work
[2] = system: JEG-3 cells; assay: [3H]-thymidine incorporation by JEG-3 cells (JEG-3 protocol); type: cell-based; settings: FIG. 5
Description: In JEG-3 cells (choriocarcinoma cell line) leptin is able to stimulate proliferation up to 3 fold (Biol. Reprod. (2007) 76: 203-10). […] The radioactivity incorporated by the cells is an index of their proliferative activity and is measured in counts per minute (CPM) with a liquid scintillation beta counter.
This finding can be applied to test whether a compound is able to either reproduce the effect of leptin on cell proliferation (leptin receptor agonist mimetic) (i.e., a given compound will cause an increase in incorporated [^3H]-Thymidine by the cells) or to inhibit the effect of leptin (antagonistic effect) by preventing the leptin-mediated increase in [^3H]-thymidine incorporation.
This approach has the advantage of using a non-recombinant system and has reasonable reproducibility and robustness.

What does the source list for “Leptin: hormone synthesized in fat cells that is believed to act in the hypothalamus to reduce food intake and body weight”?
stimulation of proliferation [1]: up to 3 fold; EC50 ([2]; JEG-3 cells (choriocarcinoma cell line), read-out: EC50 of concentration-dependent increase in [3H]-thymidine incorporation): 2.1 nM; concentration giving maximal effect on [3H]-thymidine incorporation ([2]; JEG-3 cells): 100 nM
